These results are taken from paper PMC5267425, “Identification of small molecule modulators of HIV-1 Tat and Rev protein accumulation” (Retrovirology, 2017).

The test system of series [1] is total protein synthesis in HeLa HIVrtTA∆Mls cells. Put plainly: SUnSET total protein synthesis. As to conditions: doses that significantly reduced HIV-1 protein expression, ∓Dox. The class given is cell-based. As for the experimental part: The effect of the compounds on nascent protein synthesis was measured by surface sensing of translation (SUnSET) as described by Schmidt et al.. Cells were incubated with puromycin, an aminoacyl tRNA analog, to allow puromycin incorporation into newly translated peptides and prevention of further ribosomal elongation by chain termination. To assess the effect of the compounds on protein translation, cells were prepared and treated as described above, but were incubated with 10 μg/mL of puromycin for a period of 30 min prior to harvesting cell lysates for protein analysis. Protein concentration of cell lysates was quantified by Bradford assay and equal amounts of protein (30–35 μg) was run on either 10% or 4–15% (gradient) gels. Following transfer to PVDF (BioRad), blots were probed with mouse monoclonal antibody to puromycin (anti-12D10, EMD Millipore). Blots were developed using ECL Plus (Perkin-Elmer) or Clarity (BioRad) and imaged using the ChemiDoc MP Imager (BioRad). To quantify the levels of protein synthesis, the volume intensity in each lane of compound-treated sample was calculated relative to the DMSO-treated sample and normalized to GAPDH loading control using ImageLab software (BioRad) from at least four independent experiments.

Series [2] can be described thus: Trypan blue exclusion, PBMCs. As to conditions: human, peripheral blood mononuclear cells (PBMCs). The class given is cell-based, human. The protocol: To examine the effect of compounds on viral replication, studies were carried out in peripheral blood mononuclear cells (PBMCs). PBMCs were isolated from healthy (HIV-uninfected) volunteer blood donors as described by Dobson-Belaire et al.. Informed consent was obtained from participants in accordance with the guidelines for conduct of clinical research at the University of Toronto and St. Michael’s Hospital, Toronto, Ontario, Canada. Stored PBMCs were thawed, washed with RPMI 1640 complete medium and cultured in RPMI 1640 complete medium containing 2 μg/mL of PHA-L (Sigma-Aldrich) and 20 U/mL of IL-2 (BD Pharmingen) for 72 h. Subsequently, cells were counted and a portion of the cells was separated to another tube for uninfected control treatments. The remaining PBMCs were resuspended in media containing HIV-1 BaL at a multiplicity of infection (MOI) of approximately 0.01 and infected by spinoculation, following which cells were washed twice with room temperature RPMI 1640 complete medium and resuspended to a concentration of 5 × 10^5 cells/mL in complete RPMI 1640 containing 20 U/mL of IL-2. Compounds were added to infected PBMCs or uninfected control PBMCs. Azidothymidine (AZT, Sigma-Aldrich) was used as control treatment at a final concentration of 3.74 μM. On day 4 post infection, culture medium was replenished with the compounds and IL-2 in fresh complete RPMI 1640. On days 2, 4, 6 and 8 post infection, culture supernatant was harvested, virus lysed by adjusting to 1% TritonX-100 and stored at −20 °C for p24 antigen ELISA. A fraction of the culture was harvested to assess percent cell viability by trypan blue exclusion using Glasstic slides (Kova). Relative percent cell viability in compound treated samples versus DMSO-control treated samples was calculated as follows: (total viable cells/total cells)compound/(total viable cells/total cells)DMSO.

Molecules are shown by their SMILES.

Consider `O=C(NC(=S)NNC(=O)c1ccccc1O)c1ccc(-c2ccccc2)cc1` [Compound 833, N-([2-(2-hydroxybenzoyl)hydrazino]carbonothioyl}-4-biphenylcarboxamide], for which the “reduction in protein synthesis relative to DMSO” value in series [1] is recorded as “little or no effect”. In addition, in series [2], the CC50 – broadly, the concentration that lowers cell viability or growth by half – turned out to be 3 µM.
Turning to `Cc1cc(NCc2cccnc2)n2ncc(-c3ccc(Cl)cc3)c2n1` [Compound 791, 3-(4-chlorophenyl)-5-methyl-N-(3-pyridinylmethyl)pyrazolo[1,5-a]pyrimidin-7-amine], the “reduction in protein synthesis relative to DMSO” value in series [1] is given as “little or no effect”. In addition, the CC50 in series [2] was over 10 µM. Further, in series [2] (PBMCs, 6 days post infection, concentrations up to 7.5 µM, read-out: cell viability), the viability (in general, a per cent measure of how many cells are alive, often set against a control) at 6 days post infection is over 80%.
Turning to `COc1ccc(C=NNC(=O)c2ccccc2O)cc1O` [Compound 892, 2-hydroxy-N′-(3-hydroxy-4-methoxybenzylidene)benzohydrazide], the “reduction in protein synthesis relative to DMSO” value in series [1] is ~ 25%. Further, in series [2], the CC50 stood at 4.5 µM.
